Here are results for 24 compounds from patent US8445510B2, “Fused bicyclic kinase inhibitors” (OSI Pharmaceuticals, LLC, priority 2011, dated 2013).

A word on the IC50: it is the concentration that gives 50% inhibition.

One assay deals with Karpas-299 cells. In words: Karpas-299 cell proliferation assay (CellTiter-Glo). The assay is classed as cell-based. The following applies: Homo sapiens, 72 h; Karpas-299 cell line (NPM-ALK); 3 days incubation; at least duplicate experiments; read-out: Prolif. IC50. Background: In ATP-based viability assays light output follows the ATP content of the culture.
For the next assay, the target named is T1, Aurora B (Homo sapiens, UniProt Q96GD4).
T1 construct: HT-29 cells grown in complete growth media
T1 sequence (Q96GD4 whole entry): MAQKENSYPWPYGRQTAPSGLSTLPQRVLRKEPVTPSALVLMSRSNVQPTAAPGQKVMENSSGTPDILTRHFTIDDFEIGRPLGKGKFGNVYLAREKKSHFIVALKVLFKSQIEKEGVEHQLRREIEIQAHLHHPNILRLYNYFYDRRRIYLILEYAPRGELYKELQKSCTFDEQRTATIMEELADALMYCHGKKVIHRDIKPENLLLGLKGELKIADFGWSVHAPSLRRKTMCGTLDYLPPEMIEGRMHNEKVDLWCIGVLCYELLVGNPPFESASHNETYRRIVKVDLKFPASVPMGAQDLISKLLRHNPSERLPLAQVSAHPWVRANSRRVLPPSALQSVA
In words: Aurora B cell mechanistic assay (HT-29), phospho-Histone H3 (Ser10) ELISA. In kind it is cell-based. The settings on record: HT-29 cell line; inhibition of phospho-Histone H3 (Ser10); at least duplicate experiments (italicized if single experiment); read-out: Aurora B mech IC50. In short, it runs like this:
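HT-29 cells treated 1 h at 37 °C with serially diluted compound, then 100 nM Calyculin A added for 30 min. Lysates assayed by phospho-Histone H3 (Ser10) ELISA at 450 nm; normalized to DMSO (100%) and a reference Aurora B inhibitor (full inhibition); IC50 by four-parameter fit.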

Take `COc1ccc(F)c(Cl)c1[C@@H](C)c1c[nH]c2ncc(-c3c(C)nn(C)c3C)cc12` [Example 4, 3-[(1S)-1-(2-Chloro-3-fluoro-6-methoxyphenyl)ethyl]-5-(1,3,5-trimethyl-1H-pyrazol-4-yl)-1H-pyrrolo[2,3-b]pyridine]: the concentration for half-maximal inhibition (IC50) was 50 to 200 nM in the assay on Karpas-299 cells and more than 1000 nM at Aurora B.
On the same counts, the results for `Cc1c(-c2cnc3[nH]cc([C@H](C)c4c(OC(F)F)ccc(F)c4Cl)c3c2)cnn1[C@@H]1C[C@@H](O)[C@@H](O)C1` [Example 75, (1R,2S,4S)-4-[4-(3-{(1S)-1-[2-Chloro-6-(difluoromethoxy)-3-fluoro-phenyl]ethyl}-1H-pyrrolo[2,3-b]pyridin-5-yl)-5-methyl-1H-pyrazol-1-yl]cyclopentane-1,2-diol] are not above 50 nM and 200 to 1000 nM.
Consider `COc1ccc(F)c(Cl)c1[C@@H](C)c1c[nH]c2ncc(-c3cnn(C[C@@H](O)CO)c3C(F)(F)F)cc12` [Example 35, (2R)-3-[4-{3-[(1S)-1-(2-Chloro-3-fluoro-6-methoxyphenyl)ethyl]-1H-pyrrolo[2,3-b]pyridin-5-yl}-5-(trifluoromethyl)-1H-pyrazol-1-yl]propane-1,2-diol], for which the values for the half-inhibitory concentration (IC50) in the assay with Karpas-299 cells and at Aurora B were 200 to 1000 nM and more than 1000 nM, respectively.
Consider `COc1ccc(F)c(Cl)c1[C@@H](C)c1c[nH]c2ncc(-c3cnn(C)c3C(N)=O)cc12` [Example 43, 4-{3-[(1S)-1-(2-Chloro-3-fluoro-6-methoxyphenyl)ethyl]-1H-pyrrolo[2,3-b]pyridin-5-yl}-1-methyl-1H-pyrazole-5-carboxamide], for which the IC50 in the assay on Karpas-299 cells and at Aurora B was more than 1000 nM each time.
For `CCc1c(-c2cnc3[nH]cc([C@H](C)c4c(OC)ccc(F)c4Cl)c3c2)cnn1[C@H]1CC[C@H](O)CC1` [Example 48, trans-4-(4-{3-[(1S)-1-(2-Chloro-3-fluoro-6-methoxyphenyl)ethyl]-1H-pyrrolo[2,3-b]pyridin-5-yl}-5-ethyl-1H-pyrazol-1-yl)cyclohexanol], the IC50 with Karpas-299 cells is 50 to 200 nM; at Aurora B it was more than 1000 nM.
In the same order, the values of `COc1cc(OC)c(Cl)c([C@@H](C)c2c[nH]c3ncc(-c4cnn([C@H]5CC[C@H](O)CC5)c4C)cc23)c1Cl` [Example 106, trans-4-(4-{3-[(1S)-1-(2,6-Dichloro-3,5-dimethoxyphenyl)ethyl]-1H-pyrrolo[2,3-b]pyridin-5-yl}-5-methyl-1H-pyrazol-1-yl)cyclohexanol] are 200 to 1000 nM and more than 1000 nM.
On the same counts, the results for `Cc1c(-c2cnc3[nH]cc([C@H](C)c4c(OC(F)F)ccc(F)c4Cl)c3c2)cnn1[C@H]1CC[C@H](C(N)=O)CC1` [Example 76, trans-4-[4-(3-{(1S)-1-[2-Chloro-6-(difluoromethoxy)-3-fluorophenyl]ethyl}-1H-pyrrolo[2,3-b]pyridin-5-yl)-5-methyl-1H-pyrazol-1-yl]cyclohexanecarboxamide] are not above 50 nM and 200 to 1000 nM.
On the same counts, the results for `COc1ccc(F)c(Cl)c1[C@@H](C)c1c[nH]c2ncc(-c3cnn([C@H]4CC[C@@H](N(C)C)CC4)c3C)cc12` [Example 54, cis-4-(4-{3-[(1S)-1-(2-Chloro-3-fluoro-6-methoxyphenyl)ethyl]-1H-pyrrolo[2,3-b]pyridin-5-yl}-5-methyl-1H-pyrazol-1-yl)-N,N-dimethylcyclohexanamine] are not above 50 nM and 200 to 1000 nM.
In the case of `COc1ccc(F)c(Cl)c1[C@@H](C)c1c[nH]c2ncc(-c3cn(C)nc3CN)cc12` [Example 50, 1-(4-{3-[(1S)-1-(2-Chloro-3-fluoro-6-methoxyphenyl)ethyl]-1H-pyrrolo[2,3-b]pyridin-5-yl}-1-methyl-1H-pyrazol-3-yl)methanamine], the concentration for half-maximal inhibition (IC50) with Karpas-299 cells and on Aurora B was 200 to 1000 nM in each case.
Take `COc1ccc(F)c(Cl)c1[C@@H](C)c1c[nH]c2ncc(-c3c(C)nn(C)c3CO)cc12` [Example 45, (4-{3-[(1S)-1-(2-Chloro-3-fluoro-6-methoxyphenyl)ethyl]-1H-pyrrolo[2,3-b]pyridin-5-yl}-1,3-dimethyl-1H-pyrazol-5-yl)methanol]: the values for the concentration for half-maximal inhibition (IC50) with Karpas-299 cells and at Aurora B were 50 to 200 nM and more than 1000 nM, respectively.
In the same order, the values of `Cc1c(-c2cnc3[nH]cc([C@H](C)c4c(OC(F)F)ccc(F)c4Cl)c3c2)cnn1[C@H]1C[C@@H](O)C1` [Example 81, cis-3-[4-(3-{(1S)-1-[2-Chloro-6-(difluoromethoxy)-3-fluorophenyl]ethyl}-1H-pyrrolo[2,3-b]pyridin-5-yl)-5-methyl-1H-pyrazol-1-yl]cyclobutanol] are not above 50 nM and more than 1000 nM.
On the same counts, the results for `COc1ccc(F)c(Cl)c1[C@@H](C)c1c[nH]c2ncc(-c3c(C)nn(C)c3C(N)=O)cc12` [Example 41, 4-{3-[(1S)-1-(2-Chloro-3-fluoro-6-methoxyphenyl)ethyl]-1H-pyrrolo[2,3-b]pyridin-5-yl}-1,3-dimethyl-1H-pyrazole-5-carboxamide] are more than 1000 nM and more than 1000 nM.
On the same counts, the results for `Cc1c(-c2cnc3[nH]cc([C@H](C)c4c(OCC(F)(F)F)ccc(F)c4Cl)c3c2)cnn1[C@H]1CC[C@H](O)CC1` [Example 105, trans-4-[4-(3-{(1S)-1-[2-Chloro-3-fluoro-6-(2,2,2-trifluoroethoxy)-phenyl]ethyl}-1H-pyrrolo[2,3-b]pyridin-5-yl)-5-methyl-1H-pyrazol-1-yl]cyclohexanol] are not above 50 nM and 50 to 200 nM.
Consider `Cc1c(-c2cnc3[nH]cc([C@H](C)c4c(OC(F)F)ccc(F)c4Cl)c3c2)cnn1[C@H]1CC[C@H](O)CC1` [Example 74, trans-4-[4-(3-{(1S)-1-[2-Chloro-6-(difluoromethoxy)-3-fluorophenyl]ethyl}-1H-pyrrolo[2,3-b]pyridin-5-yl)-5-methyl-1H-pyrazol-1-yl]cyclohexanol], for which the IC50 was not above 50 nM in the assay on Karpas-299 cells and 200 to 1000 nM on Aurora B.
In the same order, the values of `Cc1nn(C[C@@H](O)CO)c(C)c1-c1cnc2[nH]cc([C@H](C)c3c(Cl)ccc(F)c3Cl)c2c1` [Example 66, (2R)-3-(4-{3-[(1S)-1-(2,6-Dichloro-3-fluorophenyl)ethyl]-1H-pyrrolo[2,3-b]pyridin-5-yl}-3,5-dimethyl-1H-pyrazol-1-yl)propane-1,2-diol] are not above 50 nM and more than 1000 nM.
Turning to `COc1ccc(F)c(Cl)c1[C@@H](C)c1c[nH]c2ncc(-c3c(C)nn([C@H]4CC[C@H](O)CC4)c3C)cc12` [Example 6, trans-4-(4-{3-[(1S)-1-(2-Chloro-3-fluoro-6-methoxyphenyl)ethyl]-1H-pyrrolo[2,3-b]pyridin-5-yl}-3,5-dimethyl-1H-pyrazol-1-yl)cyclohexanol], the concentration for half-maximal inhibition (IC50) with Karpas-299 cells was not above 50 nM; at Aurora B, more than 1000 nM.
On the same counts, the results for `COc1ccc(F)c(Cl)c1[C@@H](C)c1c[nH]c2ncc(-c3cn(C)nc3C)cc12` [Example 2, 3-[(1S)-1-(2-Chloro-3-fluoro-6-methoxyphenyl)ethyl]-5-(1,3-dimethyl-1H-pyrazol-4-yl)-1H-pyrrolo[2,3-b]pyridine] are 50 to 200 nM and 50 to 200 nM.
In the case of `COc1ccc(F)c(Cl)c1[C@@H](C)c1c[nH]c2ncc(-c3cn(C)nc3C(N)=O)cc12` [Example 39, 4-{3-[(1S)-1-(2-Chloro-3-fluoro-6-methoxyphenyl)ethyl]-1H-pyrrolo[2,3-b]pyridin-5-yl}-1-methyl-1H-pyrazole-3-carboxamide], the IC50 in the assay on Karpas-299 cells is 200 to 1000 nM; at Aurora B, more than 1000 nM.
In the same order, the values of `Cc1c(-c2cnc3[nH]cc([C@H](C)c4c(Cl)ccc(F)c4Cl)c3c2)cnn1[C@H]1CC[C@H](O)CC1` [Example 67, trans-4-(4-{3-[(1S)-1-(2,6-Dichloro-3-fluorophenyl)ethyl]-1H-pyrrolo[2,3-b]pyridin-5-yl}-5-methyl-1H-pyrazol-1-yl)cyclohexanol] are 50 to 200 nM and more than 1000 nM.
In the same order, the values of `Cc1c(-c2cnc3[nH]cc([C@H](C)c4c(OC(F)F)ccc(F)c4Cl)c3c2)cnn1C[C@H](O)CO` [Example 70, (2S)-3-[4-(3-{(1S)-1-[2-Chloro-6-(difluoromethoxy)-3-fluorophenyl]ethyl}-1H-pyrrolo[2,3-b]pyridin-5-yl)-5-methyl-1H-pyrazol-1-yl]propane-1,2-diol] are not above 50 nM and 200 to 1000 nM.
Regarding `COc1ccc(F)c(Cl)c1[C@@H](C)c1c[nH]c2ncc(-c3cn(C)nc3CO)cc12` [Example 42, (4-{3-[(1S)-1-(2-Chloro-3-fluoro-6-methoxyphenyl)ethyl]-1H-pyrrolo[2,3-b]pyridin-5-yl}-1-methyl-1H-pyrazol-3-yl)methanol], the IC50 was in the range of 50 to 200 nM in the assay with Karpas-299 cells and 200 to 1000 nM at Aurora B.
`COc1ccc(F)c(Cl)c1[C@@H](C)c1c[nH]c2ncc(-c3cnn([C@H]4CC[C@H](C(N)=O)CC4)c3C)cc12` [Example 18, trans-4-(4-{3-[(1S)-1-(2-chloro-3-fluoro-6-methoxyphenyl)ethyl]-1H-pyrrolo[2,3-b]pyridin-5-yl}-5-methyl-1H-pyrazol-1-yl)cyclohexanecarboxamide]: the figures for the half-maximal inhibitory concentration (IC50) in the assay with Karpas-299 cells and at Aurora B were not above 50 nM and 200 to 1000 nM, respectively.
In the same order, the values of `COc1ccc(F)c(Cl)c1[C@@H](C)c1c[nH]c2ncc(-c3c(C)nn(C)c3Cl)cc12` [Example 63, 5-(5-Chloro-1,3-dimethyl-1H-pyrazol-4-yl)-3-[(1S)-1-(2-chloro-3-fluoro-6-methoxyphenyl)ethyl]-1H-pyrrolo[2,3-b]pyridine] are 200 to 1000 nM and more than 1000 nM.
In the same order, the values of `COc1ccc(F)c(Cl)c1[C@@H](C)c1c[nH]c2ncc(-c3cnn(C[C@H](O)CO)c3C)cc12` [Example 10, (2S)-3-(4-{3-[(1S)-1-(2-Chloro-3-fluoro-6-methoxyphenyl)ethyl]-1H-pyrrolo[2,3-b]pyridin-5-yl}-5-methyl-1H-pyrazol-1-yl)propane-1,2-diol] are not above 50 nM and 200 to 1000 nM.
